Test results taken from ChEMBL document CHEMBL1201862, “PubChem BioAssay data set” (2004).
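Five compound concentrations were applied to cells in 96-well plates for 48 hours; endpoints were derived by simple linear interpolation of the resulting dose-response curve. GI50 marks 50% less growth.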 Activity calls are given as the source filed them. Rule as the data show it: active = GI50 up to about 1.1 µM and inactive = higher.

Legend:
Assay in all cases: DTP human tumour cell line panel, 48 h
[1] = test system: OVCAR-8
[2] = test system: KM-20L2
[3] = test system: NCI-H23
[4] = test system: NCI-H460
[5] = test system: HOP-62
[6] = test system: SNB-78
[7] = test system: IGROV-1
[8] = test system: SN12C
[9] = test system: OVCAR-5
[10] = test system: SK-OV-3
[11] = test system: HCT-116
[12] = test system: A549
[13] = test system: TK-10
[14] = test system: CCRF-CEM
[15] = test system: LXFL 529
[16] = test system: DLD-1
[17] = test system: OVCAR-3
[18] = test system: EKVX
[19] = test system: SNB-19
[20] = test system: K562
[21] = test system: DMS-273
[22] = test system: RXF 631
[23] = test system: KM12
[24] = test system: RPMI-8226
[25] = test system: LOX IMVI
[26] = test system: Malme-3M
[27] = test system: COLO 205
[28] = test system: CAKI-1
[29] = test system: SK-MEL-5
[30] = test system: ACHN
[31] = test system: HCC 2998
[32] = test system: U-251
[33] = test system: SK-MEL-28
[34] = test system: A498
[35] = test system: 786-0
[36] = test system: SF-295
[37] = test system: HT-29
[38] = test system: SNB-75
[39] = test system: HOP-92
[40] = test system: SF-539
[41] = test system: RXF 393
[42] = test system: UO-31
[43] = test system: XF498
[44] = test system: M19-MEL
[45] = test system: NCI-H226
[46] = test system: OVCAR-4
[47] = test system: UACC-62
[48] = test system: NCI-H522
[49] = test system: HOP-18
[50] = test system: UACC-257
[51] = test system: SF-268
[52] = test system: M14
[53] = test system: SW-620
[54] = test system: HL-60
[55] = test system: MOLT-4
[56] = test system: DMS-114
[57] = test system: SK-MEL-2

Measured: GI50

CC(=O)OCC1(C)C(OC(C)=O)CCC2(C)C(CC(OC(C)=O)C3=CCOC3=O)C(O)(CO)CCC12 (stereo not drawn)
inactive: [1] > 100 µM | [2] > 100 µM | [3] > 100 µM | [4] > 100 µM | [5] > 100 µM | [6] > 100 µM | [7] > 100 µM | [8] > 100 µM | [9] > 100 µM | [10] > 100 µM | [11] > 100 µM | [12] > 100 µM | [13] > 100 µM | [14] 53.1 µM | [15] > 100 µM | [16] > 100 µM | [17] > 100 µM | [18] > 100 µM | [19] > 100 µM | [20] > 100 µM | [21] > 100 µM | [22] > 100 µM | [23] > 100 µM | [24] > 100 µM | [25] > 100 µM | [26] > 100 µM | [27] > 100 µM | [28] > 100 µM | [29] > 100 µM | [30] > 100 µM | [31] > 100 µM | [32] > 100 µM | [33] > 100 µM | [34] > 100 µM | [35] > 100 µM | [36] > 100 µM | [37] > 100 µM | [38] > 100 µM | [39] > 100 µM | [40] > 100 µM | [41] > 100 µM | [42] > 100 µM | [43] > 100 µM | [44] > 100 µM | [45] > 100 µM | [46] > 100 µM | [47] > 100 µM | [48] > 100 µM | [49] > 100 µM | [50] > 100 µM | [51] > 100 µM | [52] > 100 µM | [53] > 100 µM | [54] 61.5 µM

NC1=NC(=O)C(CC(=O)Nc2ccc([N+](=O)[O-])cc2[N+](=O)[O-])S1 (stereo not drawn)
inactive: [1] > 100 µM | [2] > 100 µM | [3] > 100 µM | [4] > 100 µM | [5] > 100 µM | [6] > 100 µM | [7] > 100 µM | [8] > 100 µM | [9] > 100 µM | [55] > 100 µM | [11] > 100 µM | [12] > 100 µM | [56] > 100 µM | [13] > 100 µM | [14] > 100 µM | [15] > 100 µM | [16] > 100 µM | [17] > 100 µM | [18] > 100 µM | [19] > 100 µM | [22] > 100 µM | [23] > 100 µM | [24] > 100 µM | [25] > 100 µM | [26] > 100 µM | [27] > 100 µM | [29] > 100 µM | [30] > 100 µM | [31] > 100 µM | [32] > 100 µM | [33] > 100 µM | [35] > 100 µM | [36] > 100 µM | [37] > 100 µM | [38] 92.9 µM | [39] 16.7 µM | [57] > 100 µM | [41] > 100 µM | [42] > 100 µM | [43] > 100 µM | [44] > 100 µM | [45] > 100 µM | [46] > 100 µM | [47] > 100 µM | [49] 52 µM | [50] > 100 µM | [51] > 100 µM | [52] > 100 µM | [53] > 100 µM | [54] 83.2 µM

NC(=O)NC12CC3CC(CC(F)(C3)C1)C2
inactive: [1] > 100 µM | [2] > 100 µM | [3] > 100 µM | [4] > 100 µM | [5] > 100 µM | [6] > 100 µM | [7] > 100 µM | [9] > 100 µM | [55] > 100 µM | [10] > 100 µM | [11] > 100 µM | [12] > 100 µM | [56] > 100 µM | [13] > 100 µM | [14] > 100 µM | [15] > 100 µM | [16] > 100 µM | [17] > 100 µM | [18] > 100 µM | [19] > 100 µM | [20] > 100 µM | [21] > 100 µM | [22] > 100 µM | [23] > 100 µM | [24] > 100 µM | [25] > 100 µM | [26] > 100 µM | [27] > 100 µM | [30] > 100 µM | [31] > 100 µM | [32] > 100 µM | [33] > 100 µM | [34] > 100 µM | [35] > 100 µM | [37] > 100 µM | [38] 87.9 µM | [39] > 100 µM | [57] > 100 µM | [40] > 100 µM | [41] > 100 µM | [42] > 100 µM | [43] > 100 µM | [44] > 100 µM | [47] > 100 µM | [48] > 100 µM | [50] > 100 µM | [52] > 100 µM | [53] > 100 µM | [54] > 100 µM
